Starred links: 1 amine or outer side, 2 acyl side, 3 side chain; linkers in the order of their positions; H or OH if unused. Positions of bridges follow the written chain, without caps; N, C: chain ends. Non-standard residues stand in square brackets, D forms with d. Residues, ends and D or L forms follow the SMILES beside them. Chains are numbered I, II in the order given. Actinocin(9to1) = Cc1c2oc3c(C)ccc(C(=O)[*:1])c3nc-2c(C(=O)[*:2])c(N)c1=O; NMeV = CN[C@H](C(=O)O)C(C)C; Sar = CNCC(=O)O
Tested on: Hepatotoxicity
Assay: Human drug-induced liver injury (DILI) modelling dataset from Ekins et al
Details: not given

| SMILES | Hepatotoxicity |
| --- | --- |
| CN(C)[C@@H]1C(O)=C(C(N)=O)C(=O)[C@@]2(O)C(O)=C3C(=O)c4c(O)ccc(Cl)c4[C@@](C)(O)[C@H]3C[C@@H]12.Cl [CHLORTETRACYCLINE HYDROCHLORIDE] | DILI positive (training set) |
| Cc1cc(C2CCCCC2)n(O)c(=O)c1 [CICLOPIROX] | DILI negative (training set) |
| CC1(COc2ccc(CC3SC(=O)NC3=O)cc2)CCCCC1 (configuration not stated) [CIGLITAZONE] | DILI positive (test set) |
| O=C(O)c1cc(-c2ccccc2)nc2ccccc12 [CINCHOPHEN] | DILI positive (test set) |
| CC(C)(Oc1ccc(C2CC2(Cl)Cl)cc1)C(=O)O (configuration not stated) [CIPROFIBRATE] | DILI positive (training set) |
| COc1cc(N)c(Cl)cc1C(=O)NC1CCN(CCCOc2ccc(F)cc2)CC1OC (configuration not stated) [CISAPRIDE] | DILI negative (training set) |
| CN(C)CCCC1(c2ccc(F)cc2)OCc2cc(C#N)ccc21 (configuration not stated) [CITALOPRAM] | DILI negative (training set) |
| C[N+](C)(C)CCOP(=O)(O)OP(=O)([O-])OC[C@H]1O[C@@H](n2ccc(N)nc2=O)[C@H](O)[C@@H]1O [CITICOLINE] | DILI negative (test set) |
| Nc1nc(Cl)nc2c1ncn2[C@H]1C[C@H](O)[C@@H](CO)O1 [CLADRIBINE] | DILI negative (training set) |
| CC[C@H]1OC(=O)[C@H](C)[C@@H](O[C@H]2C[C@@](C)(OC)[C@@H](O)[C@H](C)O2)[C@H](C)[C@@H](O[C@@H]2O[C@H](C)C[C@H](N(C)C)[C@H]2O)[C@](C)(OC)C[C@@H](C)C(=O)[C@H](C)[C@@H](O)[C@]1(C)O [CLARITHROMYCIN] | DILI positive (test set) |
| CN1CCC[C@@H]1CCO[C@](C)(c1ccccc1)c1ccc(Cl)cc1.O=C(O)/C=C/C(=O)O [CLEMASTINE FUMARATE] | DILI negative (test set) |
| NC1CCN(c2c(F)cc3c(=O)c(C(=O)O)cn(C4CC4)c3c2Cl)C1 (configuration not stated) [CLINAFLOXACIN] | DILI negative (training set) |
| CCC[C@@H]1C[C@@H](C(=O)N[C@@H]([C@H]2O[C@H](SC)[C@H](O)[C@@H](O)[C@H]2O)[C@H](C)Cl)N(C)C1.Cl [CLINDAMYCIN HYDROCHLORIDE] | DILI positive (test set) |
| CCOC(=O)C(C)(C)Oc1ccc(Cl)cc1 [CLOFIBRATE] | DILI positive (test set) |
| CCN(CC)CCOc1ccc(C(=C(Cl)c2ccccc2)c2ccccc2)cc1 [CLOMIPHENE] | DILI positive (training set) |
| CN(C)CCCN1c2ccccc2CCc2ccc(Cl)cc21 [CLOMIPRAMINE] | DILI positive (training set) |
| Clc1ccccc1C(c1ccccc1)(c1ccccc1)n1ccnc1 [CLOTRIMAZOLE] | DILI negative (training set) |
| Cc1onc(-c2ccccc2Cl)c1C(=O)N[C@@H]1C(=O)N2[C@@H]1SC(C)(C)[C@@H]2C(=O)[O-].O.[Na+] [CLOXACILLIN SODIUM] | DILI positive (test set) |
| CN1CCN(C2=Nc3cc(Cl)ccc3Nc3ccccc32)CC1 [CLOZAPINE] | DILI positive (training set) |
| COc1cc2c(c(OC)c1OC)-c1ccc(OC)c(=O)cc1[C@@H](NC(C)=O)CC2 [COLCHICINE] | DILI negative (training set) |
| O=C(O)c1cc(=O)c2c(OCC(O)COc3cccc4oc(C(=O)O)cc(=O)c34)cccc2o1 [CROMOLYN] | DILI negative (training set) |
| CN1CCN(C(c2ccccc2)c2ccccc2)CC1 [CYCLIZINE] | DILI positive (test set) |
| CN1CCC(=C2c3ccccc3C=Cc3ccccc32)CC1.Cl [CYPROHEPTADINE HYDROCHLORIDE] | DILI positive (training set) |
| CC(=O)O[C@]1(C(C)=O)CC[C@H]2[C@@H]3C=C(Cl)C4=CC(=O)[C@@H]5C[C@@H]5[C@]4(C)[C@H]3CC[C@@]21C [CYPROTERONE ACETATE] | DILI positive (training set) |
| C=C(C)[C@H]1CC=C(C)CC1 [D-LIMONENE] | DILI positive (test set) |
| CN(C)/N=N/c1[nH]cnc1C(N)=O [DACARBAZINE] | DILI positive (test set) |

| SMILES | Hepatotoxicity |
| --- | --- |
| Cc1c2oc3c(C)ccc(C(=O)N[C@@H]4C(=O)N[C@H](C(C)C)C(=O)N5CCC[C@H]5C(=O)N(C)CC(=O)N(C)[C@@H](C(C)C)C(=O)O[C@@H]4C)c3nc-2c(C(=O)N[C@@H]2C(=O)N[C@H](C(C)C)C(=O)N3CCC[C@H]3C(=O)N(C)CC(=O)N(C)[C@@H](C(C)C)C(=O)O[C@@H]2C)c(N)c1=O [DACTINOMYCIN] (I: T[dV]P[Sar][NMeV] / II: T[dV]P[Sar][NMeV]; ester I:1-I:C, II:1-II:C; linker I:N-II:N via Actinocin(9to1)) | DILI positive (test set) |
| C#C[C@]1(O)CC[C@H]2[C@@H]3CCC4=Cc5oncc5C[C@]4(C)[C@H]3CC[C@@]21C [DANAZOL] | DILI positive (training set) |
| O=C1CN(/N=C/c2ccc(-c3ccc([N+](=O)[O-])cc3)o2)C(=O)[N-]1.[Na+] [DANTROLENE SODIUM] | DILI positive (training set) |
| CC(=O)N(O)CCCCCNC(=O)CCC(=O)N(O)CCCCCNC(=O)CCC(=O)N(O)CCCCCN.CS(=O)(=O)O [DEFEROXAMINE MESYLATE] | DILI positive (training set) |
| CN(C)[C@@H]1C(O)=C(C(N)=O)C(=O)[C@@]2(O)C(O)=C3C(=O)c4c(O)ccc(Cl)c4[C@@H](O)[C@H]3C[C@@H]12.Cl [DEMECLOCYCLINE HYDROCHLORIDE] | DILI positive (training set) |
| C[C@@H]1C[C@H]2[C@@H]3CCC4=CC(=O)C=C[C@]4(C)[C@@]3(F)[C@@H](O)C[C@]2(C)[C@@]1(O)C(=O)CO [DEXAMETHASONE] | DILI negative (training set) |
| C[C@H](N)Cc1ccccc1.C[C@H](N)Cc1ccccc1.O=S(=O)(O)O [DEXTROAMPHETAMINE SULFATE] | DILI positive (test set) |
| Br.COc1ccc2c(c1)[C@]13CCCC[C@@H]1[C@H](C2)N(C)CC3.O [DEXTROMETHORPHAN HYDROBROMIDE] | DILI negative (training set) |
| Cc1onc(-c2c(Cl)cccc2Cl)c1C(=O)N[C@@H]1C(=O)N2[C@@H]1SC(C)(C)[C@@H]2C(=O)[O-].O.[Na+] [DICLOXACILLIN SODIUM] | DILI positive (test set) |
| O=c1[nH]cnc2c1ncn2[C@H]1CC[C@@H](CO)O1 [DIDANOSINE] | DILI positive (training set) |
| CCN(CC)C(=O)N1CCN(C)CC1 [DIETHYLCARBAMAZINE] | DILI positive (training set) |
| C[C@H]1O[C@@H](O[C@H]2[C@@H](O)C[C@H](O[C@H]3[C@@H](O)C[C@H](O[C@H]4CC[C@@]5(C)[C@H](CC[C@@H]6[C@@H]5C[C@@H](O)[C@]5(C)[C@@H](C7=CC(=O)OC7)CC[C@]65O)C4)O[C@@H]3C)O[C@@H]2C)C[C@H](O)[C@@H]1O [DIGOXIN] | DILI negative (training set) |
| COc1ccc([C@@H]2Sc3ccccc3N(CCN(C)C)C(=O)[C@@H]2OC(C)=O)cc1.Cl [DILTIAZEM HYDROCHLORIDE] | DILI negative (training set) |
| O=C1CCC(=O)N1c1cc(Cl)cc(Cl)c1 [DIMETHACHLON] | DILI positive (test set) |
| CCOC(=O)C1(c2ccccc2)CCN(CCC(C#N)(c2ccccc2)c2ccccc2)CC1.Cl [DIPHENOXYLATE HYDROCHLORIDE] | DILI negative (test set) |
| CC(C)N(CCC(C(N)=O)(c1ccccc1)c1ccccn1)C(C)C.O=P(O)(O)O (configuration not stated) [DISOPYRAMIDE PHOSPHATE] | DILI positive (training set) |
| CC(CCc1ccc(O)cc1)NCCc1ccc(O)c(O)c1.Cl (configuration not stated) [DOBUTAMINE HYDROCHLORIDE] | DILI negative (training set) |
| COc1cc2c(cc1OC)C(=O)C(CC1CCN(Cc3ccccc3)CC1)C2 (configuration not stated) [DONEPEZIL] | DILI negative (training set) |
| COc1cccc2c1C(=O)c1c(O)c3c(c(O)c1C2=O)C[C@@](O)(C(=O)CO)C[C@@H]3O[C@H]1C[C@H](N)[C@H](O)[C@H](C)O1.Cl [DOXORUBICIN HYDROCHLORIDE] | DILI positive (test set) |
| COc1cccc2c1C(=O)c1c(O)c3c(c(O)c1C2=O)C[C@@](O)(C(=O)CO)C[C@@H]3O[C@H]1C[C@H](N)[C@H](O)[C@H](C)O1 [DOXORUBICIN] | DILI negative (test set) |
| Clc1ccc(COC(Cn2ccnc2)c2ccc(Cl)cc2Cl)cc1.O=[N+]([O-])O (configuration not stated) [ECONAZOLE NITRATE] | DILI negative (test set) |
| CC[N+](C)(C)c1cccc(O)c1.[Cl-] [EDROPHONIUM CHLORIDE] | DILI negative (training set) |
| CCN(CC)C(=O)/C(C#N)=C/c1cc(O)c(O)c([N+](=O)[O-])c1 [ENTACAPONE] | DILI negative (test set) |
| COc1cccc2c1C(=O)c1c(O)c3c(c(O)c1C2=O)C[C@@](O)(C(=O)CO)C[C@@H]3O[C@H]1C[C@H](N)[C@@H](O)[C@H](C)O1 [EPIRUBICIN] | DILI negative (test set) |
| CCCCc1ncc(/C=C(\Cc2cccs2)C(=O)O)n1Cc1ccc(C(=O)O)cc1 [EPROSARTAN] | DILI negative (test set) |
| C[C@@H](CO)NC(=O)[C@@H]1C=C2c3cccc4[nH]cc(c34)C[C@H]2N(C)C1.O=C(O)/C=C\C(=O)O [ERGONOVINE MALEATE] | DILI negative (training set) |

Same assay, conditions: Liver

| SMILES | Hepatotoxicity |
| --- | --- |
| CN/C(=N/CCSCc1nc[nH]c1C)NC#N [CIMETIDINE] | DILI negative (training set) |
| Cl.Clc1cccc(Cl)c1NC1=NCCN1 [CLONIDINE HYDROCHLORIDE] | DILI positive (training set) |
| O=P1(N(CCCl)CCCl)NCCCO1 (configuration not stated) [CYCLOPHOSPHAMIDE ANHYDROUS] | DILI positive (training set) |
| Nc1ccc(S(=O)(=O)c2ccc(N)cc2)cc1 [DAPSONE] | DILI positive (training set) |
| CNCCCN1c2ccccc2CCc2ccccc21 [DESIPRAMINE] | DILI negative (training set) |
| O=C(O)c1cc(-c2ccc(F)cc2F)ccc1O [DIFLUNISAL] | DILI positive (training set) |
| OCC(S)CS (configuration not stated) [DIMERCAPROL] | DILI positive (test set) |
| c1cc[n+]2c(c1)-c1cccc[n+]1CC2 [DIQUAT] | DILI positive (test set) |
| NCCc1ccc(O)c(O)c1 [DOPAMINE] | DILI negative (training set) |
| C=C1CC[C@H](O)C/C1=C/C=C1\CCC[C@]2(C)[C@@H]([C@H](C)/C=C/[C@H](C)C(C)C)CC[C@@H]12 [ERGOCALCIFEROL] | DILI negative (training set) |

— ChEMBL document CHEMBL1697723, “A predictive ligand-based Bayesian model for human drug-induced liver injury” (Drug Metab Dispos, 2010)
